Legend:
[1] = tested on: SARS-CoV-2 (USA-WA1/2020 strain); test: SARS-CoV-2 neutralization assay in Vero E6 cells, cytopathic effect (CPE) read-out; type: cell-based; conditions: for Inhibition of SARS-CoV-2 infection of Vero cells / Day 2 CPE / Day 4 CPE: 1.25 mg/mL; for Inhibition of SARS-CoV-2 infection of Vero cells: dosed simultaneously with viral addition to cells; for EC50 (inhibition of SARS-CoV-2 CPE): Vero E6 cells, calculated by the Quest Graph EC50 Calculator (AAT Bioquest); for Day 2 CPE / Day 4 CPE: five replicate wells; for Day 2 CPE: Day 2 post-infection; for Day 4 CPE: Day 4 post-infection
[2] = tested on: Vero E6 cells; test: Cytotoxicity / cell growth observed in Vero E6 cells during the neutralization assay; conditions: for Cell growth: 1.25 mg/mL, also seen in corresponding DMSO controls (1.25%), attributed to DMSO
[3] = Solubility on dilution of DMSO stock in DMEM/F12; type: physicochemical
Description: The Vero E6 cells were plated on 96-well plates the day before the assay and were allowed to grow to ˜60% confluence. All three drugs were reconstituted with DMSO to a concentration of 100 mg/mL. That was further diluted in DMEM/F12 to 5 mg/mL. […] A 1:2 serial dilution series was performed to examine final concentrations of 1.25, 0.625, 0.31, 0.156, 0.078, 0.039, and 0.02 mg/mL. DMSO controls were used to account for DMSO concentrations at 1.25, 0.625, 0.31, 0.156, 0.078, 0.039, and 0.02%. Dilutions were pre-incubated with virus for 60 minutes prior to addition to cells. This was to allow drug to interact with virus prior to virus infection. Additionally, drug and virus were added to Vero cells simultaneously. 45 minutes after virus addition, DMEM/F12+FBS was added to feed the cells. The assay was executed in five replicates for each condition. Test wells received approximately 100 TCID50/well of SARS-CoV-2. Growth of the Vero E6 cells was observed and monitored for cytopathic effects (CPE) associated with successful virus replication. All wells were examined on Day 2 and Day 4 post-infection.

[4] = tested on: SARS-CoV-2 / COVID-19; type: in vivo; conditions: 500 mg capsule, twice per day
[5] = tested on: COVID-19; test: Subject presenting with COVID-19 symptoms taking TUDCA capsules (Example 3); type: in vivo; conditions: 500 mg capsule, twice per day; after several days
Description: A subject presenting with COVID-19 symptoms was instructed to administer one gelatin capsule of TUDCA (500 mg, powder in capsule), twice per day.

[6] = pre-incubation with virus for 60 minutes
[7] = simultaneous addition of drug and virus

Row | Structure (SMILES) | Inhibition of SARS-CoV-2 infection of Vero cells [1] | EC50 (inhibition of SARS-CoV-2 CPE) [1] [µg/mL] | Day 2 CPE [1, 6] | Day 2 CPE [1, 7] | Day 4 CPE [1, 7] | Cell growth [2] | Solubility in DMEM/F12 ([3]; 100 mg/mL DMSO stock diluted in DMEM/F12 to 5 mg/mL) | Solubility in DMEM/F12 ([3]; next 1:2 dilution after 5 mg/mL) | Health outcome of member who tested positive for SARS-CoV-2 with COVID-19 symptoms ([4]; oral, one member) | COVID-19 symptoms in exposed members (prophylaxis) ([4]; twelve members, repeated exposure to COVID-19 patients over at least 3 months) | Health outcome of subject with COVID-19 symptoms [5] | Cytotoxicity in wells ([2]; 1.25 and 0.625 mg/mL final concentrations)
1 | C[C@H](CCC(=O)NCCS(=O)(=O)[O-])[C@H]1CC[C@H]2[C@@H]3[C@@H](O)C[C@@H]4C[C@H](O)CC[C@]4(C)[C@H]3CC[C@]12C.[Na+] [Sodium TUDCA] | inhibit SARS-CoV-2 infection of Vero cells | 980 | no CPE | no CPE | no CPE | Slowed cell growth |  |  |  |  |  | 
2 | CC(CCC(=O)NCCS(=O)(=O)O)C1CCC2C3C(O)CC4CC(O)CCC4(C)C3CCC12C (stereo not drawn) [TUDCA acid, tauroursodeoxycholic acid] | inhibit SARS-CoV-2 infection of Vero cells | 980 | no CPE | no CPE | no CPE | Slowed cell growth |  |  |  |  |  | 
3 | CC(CCC(=O)NCCS(=O)(=O)O)C1CCC2C3C(O)CC4CC(O)CCC4(C)C3CCC12C (stereo not drawn) [TUDCA, tauroursodeoxycholic acid] |  |  |  |  |  |  | came out of solution | soluble | health returned to normal | None of the other twelve members have presented with COVID-19 symptoms | health returned to normal | Cytotoxicity was seen
